Measurements reported in US20240269139A1, “COMPOUNDS FOR TARGETED PROTEIN DEGRADATION OF KINASES” (DANA-FARBER CANCER INSTITUTE, INC., priority 2020, published 2024).
Where two headings read alike, the source gives them in different places.

How the values were obtained:
[1] = biological target: protein kinases (human kinome) (Homo sapiens, UniProt P29317); format: cell-based; conditions: for logFC: EPHA2 (P29317)
[2] = biological target: protein kinases (human kinome) (Homo sapiens, UniProt Q96GD4); format: cell-based; conditions: for logFC AURKB: AURKB Q96GD4
Sequence of protein kinases (human kinome) (Homo sapiens, UniProt Q96GD4) (Q96GD4 whole entry): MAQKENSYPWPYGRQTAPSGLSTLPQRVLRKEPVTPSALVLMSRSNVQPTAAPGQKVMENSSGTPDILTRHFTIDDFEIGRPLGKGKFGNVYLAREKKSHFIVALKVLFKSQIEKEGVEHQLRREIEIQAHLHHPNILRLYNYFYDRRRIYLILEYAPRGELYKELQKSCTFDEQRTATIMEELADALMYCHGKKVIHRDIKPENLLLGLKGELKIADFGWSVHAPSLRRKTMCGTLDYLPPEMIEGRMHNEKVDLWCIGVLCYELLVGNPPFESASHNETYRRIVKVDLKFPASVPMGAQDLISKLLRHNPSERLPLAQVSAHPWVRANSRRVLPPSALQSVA

Sequence of protein kinases (human kinome) (Homo sapiens, UniProt P29317) (P29317 24-976): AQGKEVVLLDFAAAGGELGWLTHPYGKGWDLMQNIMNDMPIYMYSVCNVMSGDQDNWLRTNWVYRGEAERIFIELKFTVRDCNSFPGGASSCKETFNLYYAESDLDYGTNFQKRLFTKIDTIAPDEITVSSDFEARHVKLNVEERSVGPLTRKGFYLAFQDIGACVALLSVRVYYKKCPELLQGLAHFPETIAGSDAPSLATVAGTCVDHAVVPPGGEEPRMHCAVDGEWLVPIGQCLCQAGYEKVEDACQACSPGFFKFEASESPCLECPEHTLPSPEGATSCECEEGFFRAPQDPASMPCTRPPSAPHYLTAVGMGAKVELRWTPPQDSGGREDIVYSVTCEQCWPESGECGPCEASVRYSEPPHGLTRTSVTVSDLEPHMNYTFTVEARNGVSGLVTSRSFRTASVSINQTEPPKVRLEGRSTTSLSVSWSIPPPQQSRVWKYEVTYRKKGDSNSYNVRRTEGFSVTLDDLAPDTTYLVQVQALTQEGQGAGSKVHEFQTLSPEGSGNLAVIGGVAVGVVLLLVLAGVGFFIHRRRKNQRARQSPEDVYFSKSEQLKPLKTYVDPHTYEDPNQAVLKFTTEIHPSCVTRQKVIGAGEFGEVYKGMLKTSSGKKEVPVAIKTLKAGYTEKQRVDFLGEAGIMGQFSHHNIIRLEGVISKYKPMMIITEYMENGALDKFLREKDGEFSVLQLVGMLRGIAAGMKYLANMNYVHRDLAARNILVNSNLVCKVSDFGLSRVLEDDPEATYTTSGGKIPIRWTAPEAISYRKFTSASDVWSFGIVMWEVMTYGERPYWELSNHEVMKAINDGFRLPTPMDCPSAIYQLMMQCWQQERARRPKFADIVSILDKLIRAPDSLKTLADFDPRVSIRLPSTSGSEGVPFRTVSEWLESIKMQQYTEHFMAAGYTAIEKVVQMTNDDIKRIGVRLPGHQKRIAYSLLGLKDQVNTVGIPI

Row | Structure (SMILES) | logFC ([1]; experiment wp114) | logFC ([1]; experiment wp172) | logFC of EPHA2 (P29317) ([1]; Experiment wp114) | logFC of EPHA2 (P29317) ([1]; Experiment wp172) | logFC AURKB ([2]; experiment wp160, 4 hr) | logFC AURKB ([2]; experiment wp172) | logFC of AURKB (Q96GD4) ([2]; Experiment wp172) | logFC of AURKB (Q96GD4) ([2]; experiment wp160, 4 hr)
1 | Cc1ccc(C(=O)Nc2ccc(CN3CCN(CCCOCCOCCOCCNC(=O)COc4cccc5c4C(=O)N(C4CCC(=O)NC4=O)C5=O)CC3)c(C(F)(F)F)c2)cc1C#Cc1cnc2cccnn12 (centres unmarked) [SB1.G.187] | −0.401 | −0.4107 | −0.401 | −0.4107 | – | – | – | –
2 | CC(C)S(=O)(=O)c1ccccc1Nc1nc(Nc2ccc(N3CCN(CCOCCNC(=O)CNc4cccc5c4C(=O)N(C4CCC(=O)NC4=O)C5=O)CC3)cc2)ncc1Cl (centres unmarked) [SK.3.91] | – | – | – | – | −0.4984 | −1.11 | −1.11 | −0.4984
